Test results reported in patent US20250250284A1, “MACROCYCLE COMPOUNDS USEFUL AS KRAS INHIBITORS” (Hoffmann-La Roche Inc., priority 2022, published 2025).

Experiments:
[1] = tested on: NCI-H358 cells; assay: Cell viability assay (Cell Counting Kit-8), KRAS G12C; format: cell-based; details: Homo sapiens, 72 hrs incubation, CCK-8
Procedure: (§1) The purpose of this cellular assay was to determine the effects of test compounds on the proliferation of human cancer cell lines NCI-H358 (ATCC-CRL5807) cells, AGS (ATCC-CRL-1739) cells, SW620 (ATCC-CCL-227) over a 3-day treatment period by quantifying the amount of NADPH present at endpoint using Cell Counting Kit-8.
(§2) Cells were seeded at 5,000 cells/well (NCI-H358), 2,000 cells/well (AGS) 2,000 cells/well (SW620) in 96-well assay plates (Corning-3699) and incubated overnight. On the day of the assay, diluted compounds were then added in a final concentration of 0.5% DMSO. After 72 hrs incubation, a tenth of the volume of cell counting kit 8 (Dnjindo-CK04) was added into each well. Read the signal (OD450 minus OD650) using EnVision after 2 hrs incubation. IC50 was determined by fitting a 4-parameter sigmoidal concentration response model.

[2] = tested on: AGS cells; assay: Cell viability assay (Cell Counting Kit-8), KRAS G12D; format: cell-based; details: Homo sapiens, 72 hrs incubation, CCK-8
Procedure: as §1, §2

[3] = tested on: SW620 cells; assay: Cell viability assay (Cell Counting Kit-8), KRAS G12V; format: cell-based; details: Homo sapiens, SW-620, 72 hrs incubation, CCK-8
Procedure: as §1, §2

[4] = molecular target: KRAS G12C-BRAF complex (Homo sapiens (Human), UniProt P01116+P62937, G12C); assay: KRAS-BRAF with CYPA (500 nM) interaction assay (TR-FRET), G12C; format: binding; details: GMPPNP loaded 6His-KRAS, GST-BRAF RBD, 3 hours
Procedure: (§3) KRAS-BRAF with CYPA (500 nM) Interaction Assay
(§4) In this example, TR-FRET was also used to measure the compound or compound-CYPA dependent disruption of the KRAS G12C-BRAF complex. This protocol was also used to measure disruption of KRAS G12D or KRAS G12V binding to BRAF by a compound of the invention, respectively. In assay buffer containing 25 mM HEPES PH=7.4 (4-(2-hydroxyethyl)-1-piperazineethanesulfonic acid, Thermo, 15630080), 0.002% Tween20, 0.1% BSA, 100 mM NaCl, 5 mM MgCl2, 10 μM GMPPNP (Guanosine 5′-[β,γ-imido]triphosphate trisodium salt hydrate, Sigma, G0635), tagless CYPA, GMPPNP loaded 6His-KRAS proteins, and GST-BRAF^RBD were mixed in a well of a 384-well assay plate at final concentrations of 50 nM, 6.25 nM and 1 nM, respectively. Compound was present in plate wells as a 16-point 3-fold dilution series starting at a final concentration of 10 μM and incubated for 3 hours. A mixture of MAb Anti-6His-XL665 (Cisbio, 61HISXLB) and Mab anti-GST-TB cryptate (Cisbio, 61GSTTLB) was then added at a final concentration of 6.67 nM and 0.21 nM, respectively, and the plate was incubated for an additional 1.5 hours. TR-FRET signal was read on a PHERstar FSX microplate reader (Ex320 nm, Em 665/615 nm). Compounds that facilitate disruption of the KRAS-BRAF complex were identified as those eliciting a decrease in the TR-FRET ratio relative to DMSO control wells.

[5] = molecular target: KRAS G12D binding to BRAF (Homo sapiens (Human), UniProt P01116+P62937, G12D); assay: KRAS-BRAF with CYPA (500 nM) interaction assay (TR-FRET), G12D; details: GMPPNP loaded 6His-KRAS, GST-BRAF RBD, 3 hours
Procedure: as §3, §4

[6] = molecular target: KRAS G12V binding to BRAF (Homo sapiens (Human), UniProt P01116+P62937, G12V); assay: KRAS-BRAF with CYPA (500 nM) interaction assay (TR-FRET), G12V; details: GMPPNP loaded 6His-KRAS, GST-BRAF RBD, 3 hours
Procedure: as §3, §4

[7] = tested on: phosphorylation of ERK, KRAS G12C in NCI-H358 cells; assay: pERK inhibition assay, KRAS G12C; format: cell-based; details: Homo sapiens, 4 hours of incubation
Procedure: (§5) This assay is to measure the ability of test compounds in inhibiting the phosphorylation of ERK, the downstream signaling of KRAS G12C in NCI-H358 cells, KRAS G12D in AGS cells, and KRAS G12V in SW620. NCI-H358 (ATCC-CRL5807) cells, AGS (ATCC-CRL-1739) cells, SW620 (ATCC-CCL-227) cells were all grown and maintained using RPMI-1640 medium (Thermo Fisher Scientific) with 10% fetal bovine serum and 1% penicillin/streptomycin. On the day prior to compound addition, cells were plated in tissue culture-treated 96 well plates (Corning-3699) at a density of 30,000 cell/well, 20,000 cell/well, 30,000 cell/well for NCI-H358, AGS and SW620 respectively, and allowed for attachment overnight. Diluted compounds were then added in a final concentration of 0.5% DMSO. After 4 hours of incubation, the medium was removed, 100 μL of 4% formaldehyde was added, and the assay plates were incubated at room temperature for 20 minutes. The plates were then washed once with phosphate buffered saline (PBS), and permeabilized with 100 μL of chilled methanol for 10 minutes. Non-specific antibody binding to the plates was blocked using 50 μL 1×BSA blocking buffer (Thermo-37520, 10-fold dilution by Phosphate-Buffered Saline Tween (PBST) for at least 1 hour at room temperature.
(§6) The amount of phosphor-ERK was determined using an antibody specific for phosphorylated form of ERK. Primary antibody (pERK, CST-4370, Cell Signaling Technology) was diluted 1:300 in blocking buffer, with 50 μL aliquoted to each well, and incubated overnight at 4° C. Cells was washed five times for 5 minutes with PBST. Secondary antibody (HRP-linked anti-rabbit IgG, CST-7074, Cell Signaling Technology) was diluted 1:1000 in blocking buffer, and 50 μL was added to each well and incubated 1-2 hrs at room temperature. Cells was washed 5 times for 5 minutes with PBST, 100 μL TMB ELISA substrate (abcam-ab171523) were added and gently shake for 20 minutes. 50 μL stop solution (abcam-ab171529) were added, and then read the signal (OD450) by EnVision.
(§7) IC50 was determined by fitting a 4-parameter sigmoidal concentration response model.

[8] = tested on: phosphorylation of ERK, KRAS G12D in AGS cells; assay: pERK inhibition assay, KRAS G12D; format: cell-based; details: Homo sapiens, 4 hours of incubation
Procedure: as §5, §6, §7

[9] = tested on: phosphorylation of ERK, KRAS G12V in SW620; assay: pERK inhibition assay, KRAS G12V; format: cell-based; details: Homo sapiens, SW-620; SW620 cells, 4 hours of incubation
Procedure: as §5, §6, §7

Chain of KRAS G12C-BRAF complex (P01116-2 other isoform, or with tags, fused parts or gaps G12C): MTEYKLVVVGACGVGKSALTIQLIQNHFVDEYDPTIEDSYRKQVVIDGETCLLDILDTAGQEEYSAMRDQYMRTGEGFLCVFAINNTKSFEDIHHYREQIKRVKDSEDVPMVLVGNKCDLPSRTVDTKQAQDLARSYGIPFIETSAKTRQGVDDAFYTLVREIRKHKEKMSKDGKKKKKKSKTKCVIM
Chain of KRAS G12C-BRAF complex (P62937 whole entry): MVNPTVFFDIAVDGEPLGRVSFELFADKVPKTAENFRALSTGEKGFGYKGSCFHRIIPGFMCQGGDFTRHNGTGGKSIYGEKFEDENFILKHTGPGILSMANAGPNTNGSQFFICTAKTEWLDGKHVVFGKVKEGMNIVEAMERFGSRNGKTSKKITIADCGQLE
Chain of KRAS G12D binding to BRAF (P01116-2 other isoform, or with tags, fused parts or gaps G12D): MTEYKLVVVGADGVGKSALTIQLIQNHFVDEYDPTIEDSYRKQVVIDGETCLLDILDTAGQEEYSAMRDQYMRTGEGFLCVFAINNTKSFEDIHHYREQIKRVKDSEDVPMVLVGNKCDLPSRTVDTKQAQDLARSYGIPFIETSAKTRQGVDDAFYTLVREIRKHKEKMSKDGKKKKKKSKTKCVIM
Chain of KRAS G12D binding to BRAF (P62937 whole entry): as the sequence (P62937 whole entry) above
Chain of KRAS G12V binding to BRAF (P01116-2 other isoform, or with tags, fused parts or gaps G12V): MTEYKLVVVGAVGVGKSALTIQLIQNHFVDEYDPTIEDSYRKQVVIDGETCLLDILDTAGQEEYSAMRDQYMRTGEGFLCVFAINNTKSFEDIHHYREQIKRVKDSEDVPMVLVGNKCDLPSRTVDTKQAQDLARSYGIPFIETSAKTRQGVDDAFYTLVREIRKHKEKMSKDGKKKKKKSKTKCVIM
Chain of KRAS G12V binding to BRAF (P62937 whole entry): as the sequence (P62937 whole entry) above

CO[C@@H](C)c1ncc(N2CCN(C)CC2)cc1-c1c2c3cc(c(F)cc3n1CC(F)(F)F)-c1csc(n1)C[C@H](NC(=O)[C@H]1C[C@@H]1C)C(=O)N1CCC[C@H](N1)C(=O)OCC(C)(C)C2 (atropisomer, axis not shown; (M)) [Example 4, (1S,2S)—N-[(7S,13S)-24-fluoro-(20M)-20-[2-[(1S)-1-methoxyethyl]-5-(4-methylpiperazin-1-yl)-3-pyridyl]-17,17-dimethyl-8,14-dioxo-21-(2,2,2-trifluoroethyl)-15-oxa-4-thia-9,21,27,28-tetrazapentacyclo[17.5.2.1^2,5.1^9,13.0^22,26]octacosa-1(25),2,5(28),19,22(26),23-hexaen-7-yl]-2-methyl-cyclopropanecarboxamide]
IC50 [1]: 0.019 µM
IC50 [2]: 1.27 µM
IC50 [3]: 0.013 µM
IC50 [4]: 0.036 µM
IC50 [5]: 0.544 µM
IC50 [6]: 0.095 µM
IC50 [7]: 0.02 µM
IC50 [8]: 0.047 µM
IC50 [9]: 0.007 µM

CCn1c(-c2cc(N3CCN(CC(F)(F)F)CC3)cnc2[C@H](C)OC)c2c3cc(c(F)cc31)-c1csc(n1)C[C@H](NC(=O)[C@H]1C[C@@H]1C)C(=O)N1CCC[C@H](N1)C(=O)OCC(C)(C)C2 (atropisomer, axis not shown; (M)) [Example 7, (1S,2S)—N-[(7S,13S)-21-ethyl-24-fluoro-(20M)-20-[2-[(1S)-1-methoxyethyl]-5-[4-(2,2,2-trifluoroethyl)piperazin-1-yl]-3-pyridyl]-17,17-dimethyl-8,14-dioxo-15-oxa-4-thia-9,21,27,28-tetrazapentacyclo[17.5.2.1^2,5.1^9,13.0^22,26]octacosa-1(25),2,5(28),19,22(26),23-hexaen-7-yl]-2-methyl-cyclopropanecarboxamide]
IC50 [1]: 0.074 µM
IC50 [2]: 0.389 µM
IC50 [3]: 0.027 µM
IC50 [4]: 0.192 µM
IC50 [5]: > 10 µM
IC50 [6]: 0.697 µM
IC50 [7]: 0.071 µM
IC50 [8]: 0.115 µM
IC50 [9]: 0.02 µM

CO[C@@H](C)c1ncc(N2CCOCC2)cc1-c1c2c3cc(c(F)cc3n1CC(F)(F)F)-c1csc(n1)C[C@H](NC(=O)[C@H]1C[C@@H]1C)C(=O)N1CCC[C@H](N1)C(=O)OCC(C)(C)C2 (atropisomer, axis not shown; (M)) [Example 12, (1S,2S)—N-[(7S,13S)-24-fluoro-(20M)-20-[2-[(1S)-1-methoxyethyl]-5-morpholino-3-pyridyl]-17,17-dimethyl-8,14-dioxo-21-(2,2,2-trifluoroethyl)-15-oxa-4-thia-9,21,27,28-tetrazapentacyclo[17.5.2.1^2,5.1^9,13.0^22,26]octacosa-1(25),2,5(28),19,22(26),23-hexaen-7-yl]-2-methyl-cyclopropanecarboxamide]
IC50 [1]: 0.011 µM
IC50 [2]: 0.244 µM
IC50 [3]: 0.016 µM
IC50 [7]: 0.033 µM
IC50 [8]: 0.053 µM
IC50 [9]: 0.009 µM

CCn1c(-c2cc(N3CCN(C)CC3)cnc2[C@H](C)OC)c2c3cc(c(F)cc31)-c1csc(n1)C[C@H](NC(=O)[C@@H]1C[C@H]1C#N)C(=O)N1CCC[C@H](N1)C(=O)OCC(C)(C)C2 [Example 6, (1R,2R)-2-cyano-N-[(7S,13S)-21-ethyl-24-fluoro-(20M)-20-[2-[(1S)-1-methoxyethyl]-5-(4-methylpiperazin-1-yl)-3-pyridyl]-17,17-dimethyl-8,14-dioxo-15-oxa-4-thia-9,21,27,28-tetrazapentacyclo[17.5.2.1^2,5.1^9,13.0^22,26]octacosa-1(25),2,5(28),19,22(26),23-hexaen-7-yl]cyclopropanecarboxamide]
IC50 [1]: 0.079 µM
IC50 [2]: 0.316 µM
IC50 [3]: 0.035 µM
IC50 [7]: 0.079 µM
IC50 [8]: 0.116 µM
IC50 [9]: 0.025 µM

CCn1c(-c2cc(N3CCN(C)CC3)cnc2[C@H](C)OC)c2c3cc(c(F)cc31)-c1csc(n1)C[C@H](NC(=O)[C@H]1C[C@@H]1C#N)C(=O)N1CCC[C@H](N1)C(=O)OCC(C)(C)C2 [Example 5, (1S,2S)-2-cyano-N-[(7S,13S)-21-ethyl-24-fluoro-(20M)-20-[2-[(1S)-1-methoxyethyl]-5-(4-methylpiperazin-1-yl)-3-pyridyl]-17,17-dimethyl-8,14-dioxo-15-oxa-4-thia-9,21,27,28-tetrazapentacyclo[17.5.2.1^2,5.1^9,13.0^22,26]octacosa-1(25),2,5(28),19,22(26),23-hexaen-7-yl]cyclopropanecarboxamide]
IC50 [1]: 0.023 µM
IC50 [2]: 0.089 µM
IC50 [3]: 0.012 µM
IC50 [7]: 0.057 µM
IC50 [8]: 0.056 µM
IC50 [9]: 0.013 µM

CCn1c(-c2cc(N3CCOCC3)cnc2[C@H](C)OC)c2c3cc(c(F)cc31)-c1csc(n1)C[C@H](NC(=O)[C@H]1C[C@@H]1C(F)F)C(=O)N1CCC[C@H](N1)C(=O)OCC(C)(C)C2 (atropisomer, axis not shown; (M)) [Example 11, (1S,2S)-2-(difluoromethyl)-N-[(7S,13S)-21-ethyl-24-fluoro-(20M)-20-[2-[(1S)-1-methoxyethyl]-5-morpholino-3-pyridyl]-17,17-dimethyl-8,14-dioxo-15-oxa-4-thia-9,21,27,28-tetrazapentacyclo[17.5.2.1^2,5.1^9,13.0^22,26]octacosa-1(25),2,5(28),19,22(26),23-hexaen-7-yl]cyclopropanecarboxamide]
IC50 [1]: 0.005 µM
IC50 [2]: 0.111 µM
IC50 [3]: 0.007 µM
IC50 [7]: 0.021 µM
IC50 [8]: 0.028 µM
IC50 [9]: 0.007 µM
